Measured values from patent US9205071B2, “Arsenic compounds, their preparation methods and uses thereof” (Changzhou Hi-Tech District Multiple Dimension Industry …, priority 2009, dated 2015).

What was measured:
HL-60 cells [1] = test: Cell proliferation test (MTT method); format: cell-based; conditions: HL-60 cell proliferation, 48 h
Description: Tested drugs with different concentrations were added, and repeated four wells for each drug concentration group, then continued to culture in a CO2 incubator. Cell proliferation was detected by MTT method 48 h after culture. 15 ul MTT (5 mg/ml) was added in each well, and continued to culture for 4 h. Suspension in the well was collected, centrifuged, and supernatant was discarded. 100 ul of DMSO was added into each well to completely dissolve formazan particles. The solution was sucked into the original well, the absorbance at 492 nm was detected by ELISA, and the inhibiting rate was calculated according to the formula CI=(1-A test group /A control group)×100%.

HL-60 cells [2] = test: Cell viability test (Trypan blue, live cell rate)

O=[As]([O-])([O-])[O-].[Na+].[Na+].[Na+] [Na3AsO4]
Inhibiting rate (HL-60 cells [1]; 7.5 uM): 2.5%
Inhibiting rate (HL-60 cells [1]; 15 uM): 7.9%
Inhibiting rate (HL-60 cells [1]; 30 uM): 13.9%
Inhibiting rate (HL-60 cells [1]; 60 uM): 24.5%
live cell rate at 4 d after administration (HL-60 cells [2]; 7.5 uM): 93.11%
live cell rate at 4 d after administration (HL-60 cells [2]; 15 uM): 89.06%
live cell rate at 4 d after administration (HL-60 cells [2]; 30 uM): 75.36%
live cell rate at 4 d after administration (HL-60 cells [2]; 60 uM): 60.06%
live cell rate at 4 d after administration (HL-60 cells [2]; 120 uM): 43.11%
